Values quoted from earlier work as cited in patent publication US20260364145A1, “MODIFIED CAVEOLIN-1 PEPTIDE FORMULATIONS AND METHODS OF MANUFACTURING AND USE THEREOF” (REIN THERAPEUTICS, INC., priority 2023, published 2026).

How the values were obtained:
Details in all cases: cited from earlier work
fibrosis = tested on: fibrosis
[1] = tested on: Wnt-signaling, β-catenin-mediated transcription, activation of SRC, EGFR, MEK1 and ERK-2
[2] = tested on: Cav-1 interaction with SRC kinases

With DGIWKASFTTFTVTKYWFYR [CSP 20-mer] as the sequence, how does the effect on fibrosis (fibrosis; animal models) read?
The effect on fibrosis was “prevent, limit, or reverse fibrosis in animal models”.

And the “effect on lung aSMA, epithelial apoptosis, collagen and profibrogenic signaling” value (fibrosis; in vivo)?
Its value is “reduced lung aSMA and lung epithelial apoptosis, reduced collagen deposition, and down-regulation of expression of profibrogenic signaling molecules”.

And the effect on signaling [1]?
Its effect on signaling is “inhibition of Wnt-signaling, β-catenin-mediated transcription, activation of SRC, EGFR, MEK1 and ERK-2”.

And the “effect on Cav-1 interaction with SRC kinases” value [2]?
The value was “interferes with Cav-1 interaction with SRC kinases”.
